The results in this text go back to patent publication US20230256007A1 (priority 2022, published 2023).

Molecules are shown by their SMILES.

In this test the test system is patient with sequelae of coronavirus pneumonia (omicron variant of coronavirus). To be noted: human, in vivo.

On to `[HH]` [hydrogen gas, hydrogen], for which the “Daily headache and migraine that occurred several times a day” value is recorded as “relieved”; the “Generalized pain, difficulty breathing, feeling of faintness, malaise, fatigue after exertion, sleeping disorder, low-grade fever, bradycardia, blood pressure drop” value is recorded as “continues to alleviate symptoms”; the “State of pulmonary fibrosis” value is given as “improving”; the “Time after which sleeping disorder improved” value is “about 3 days”.
